Literature values as cited in US8425924B2, “Propylene compositions containing a pyrethroid and products made therefrom” (ExxonMobil Chemical Patents Inc., priority 2009, dated 2013).

Conditions: thermal stability of the pyrethroid

Row | Structure (SMILES) | stable up to a temperature
1 | C=CCC1=C(C)C(OC(=O)[C@@H]2[C@@H](C=C(C)C)C2(C)C)CC1=O (some centres unmarked) [allethrin I] | more than 400 °C
2 | CC1(C)[C@H](C(=O)O[C@H](C#N)c2cccc(Oc3ccccc3)c2)[C@@H]1C=C(Br)Br [deltamethrin] | up to 320 °C
